Common to all, as to type: cell-based, human
Assay [1] has as its system HLA-G5. Put plainly: HLA-G5 mRNA level in BMSCs by RT-PCR. Conditions: band intensity HLA-G5 divided by β2M, means±SEM, 3 runs. How it is done:
(§1) Adult BMSCs (passage 2) were obtained from Cell Applications, Inc. (San Diego, Calif.) and cultured in alpha-minimum essential medium (α-MEM) (Invitrogen) supplemented with 10% FBS and 1% penicillin/streptomycin (Invitrogen) at 37° C. in a humidified 5% CO2 incubator. At 70-80% confluence, cells were harvested with 0.25% trypsin-EDTA (Invitrogen) and expanded at 1:3 split ratios.
After 72 h treatment, cells were trypsinized and total RNA extracted using RNeasy kit (Qiagen, Valencia, Calif.) according to the manufacturer's protocol. Semi-quantitative RT-PCR reactions were performed on a DNA Engine Peltier Thermal Cycler (Bio-Rad, Hercules, Calif.) as previously described. M. D. Nicola, et al., Human bone marrow stromal cells suppress T-lymphocyte proliferation induced by cellular or non-specific mitogenic stimuli, Blood 99: 3838-3843 (2002). Briefly, first strand cDNA was synthesized in 50 μl reactions from 2 μg total RNA using oligo dT primers and TaqMan reverse transcription reagents (Applied Biosystems, Foster City, Calif.). Reverse transcription (RT) reactions were carried out at 24° C. for 10 min, 48° C. for 1 h, and heat inactivation at 95° C. for 5 min. […] PCR program consisted of 94° C. for 4 min, followed by 30 cycles at 94° C. for 30 s, 60° C. for 1 min, and 72° C. for 1 min with a final extension at 72° C. for 10 min. […]

Assay [2] relates to HLA-G5. Briefly: HLA-G5 mRNA level in AMSCs by RT-PCR. Conditions: for Relative expression of HLA-G5: AMSCs, band intensity HLA-G5 divided by β2M, means±SEM, 3 runs. How it is done:
(§2) AMSCs were isolated from adult human lipoaspirate of patients undergoing liposuction procedure. Briefly, abdominal subcutaneous adipose samples were washed with Hanks' balanced salt solutions (HBSS) (Invitrogen, Carlsbad, Calif.). After gentle shaking, the lower phase (containing stem cells, adipocytes, and blood) was washed and enzymatically dissociated with 0.075% collagenase type I (Sigma-Aldrich, St. Louis, Mo.)/HBSS for 1 h at 37° C. with gentle shaking. Collagenase was inactivated by adding fetal bovine serum (FBS) and samples were centrifuged at 400 g for 10 min at 25° C. The pellet was resuspended in RBC lysis buffer (eBioscience, San Diego, Calif.) and adherent cell masses were removed by sequential passing through 100, 70, and 40 μm mesh filters. Cells were then added into equal amounts of HISTOPAQUE-1077 (Sigma) and centrifuged at 400 g for 30 min to separate MSCs. Cells were seeded at 1-2×10^4 cells/cm^2 and grown in Dulbecco's modified eagle medium (DMEM, Invitrogen) supplemented with 10% FBS and 1% penicillin/streptomycin (Invitrogen) at 37° C. in a humidified 5% CO2 incubator and media changed every 2-3 d. After reaching 70-80% confluence, cells were washed with phosphate buffered saline (PBS), detached with 0.25% trypsin-EDTA (Invitrogen), then centrifuged and expanded at 1:3 split ratios.
After 72 h treatment, cells were trypsinized and total RNA extracted using RNeasy kit (Qiagen, Valencia, Calif.) according to the manufacturer's protocol. Semi-quantitative RT-PCR reactions were performed on a DNA Engine Peltier Thermal Cycler (Bio-Rad, Hercules, Calif.) as previously described. M. D. Nicola, et al., Human bone marrow stromal cells suppress T-lymphocyte proliferation induced by cellular or non-specific mitogenic stimuli, Blood 99: 3838-3843 (2002). Briefly, first strand cDNA was synthesized in 50 μl reactions from 2 μg total RNA using oligo dT primers and TaqMan reverse transcription reagents (Applied Biosystems, Foster City, Calif.). […]

Assay [3] deals with HLA-G1. Briefly: HLA-G1 transcript expression in AMSCs by semi-quantitative RT-PCR. As to conditions: for Relative HLA-G1 expression: 10 μM for 72 h, ratio HLA-G to β-actin, mean±SEM, 3 experiments. How it is done:
as §2, with “ratios. […]” for “ratios.”
After 72 h treatment, cells were trypsinized and total RNA extracted using RNeasy kit (Qiagen, Valencia, Calif.) according to the manufacturer's protocol. Semi-quantitative RT-PCR reactions were performed on a DNA Engine Peltier Thermal Cycler (Bio-Rad, Hercules, Calif.) as previously described. […] Relative expression levels were calculated from the ratio of integrated density values of HLA-G to that of β-actin.
(§3) Total RNA was extracted from both treated and untreated cells, and HLA-G1 and -G3 transcripts analyzed by semi-quantitative RT-PCR.
(§4) MSCs were treated with Valproic acid (VPA) (a known histone deacetylase inhibitor (HDAC) inhibitor) and HLA-G1, -G3 and HLA-G5 transcripts were evaluated by semi-quantitative RT-PCR.

The subject of assay [4] is HLA-G3. Put plainly: HLA-G3 transcript expression in BMSCs by semi-quantitative RT-PCR. Conditions: mean±SEM. The method, then: as §1
(§5) Demethylating treatment was carried out by culturing MSCs for 72 h with 5-aza-2′-deoxycytidine (5-aza-dC) (Sigma) at a final concentration of 10 μM or with the solvent DMSO as control.
After 72 h treatment, cells were trypsinized and total RNA extracted using RNeasy kit (Qiagen, Valencia, Calif.) according to the manufacturer's protocol. Semi-quantitative RT-PCR reactions were performed on a DNA Engine Peltier Thermal Cycler (Bio-Rad, Hercules, Calif.) as previously described. M. D. Nicola, et al., Human bone marrow stromal cells suppress T-lymphocyte proliferation induced by cellular or non-specific mitogenic stimuli, Blood 99: 3838-3843 (2002). Briefly, first strand cDNA was synthesized in 50 μl reactions from 2 μg total RNA using oligo dT primers and TaqMan reverse transcription reagents (Applied Biosystems, Foster City, Calif.). Reverse transcription (RT) reactions were carried out at 24° C. for 10 min, 48° C. for 1 h, and heat inactivation at 95° C. for 5 min. RT samples were diluted at 1:4 in DNase, RNase free water and PCR performed in 20 μl reaction using Taq PCR master mix (Qiagen), 1 μl of diluted template, and HLA-G primers (Table 1). β-actin was used as an internal control. PCR program consisted of 94° C. for 4 min, followed by 30 cycles at 94° C. for 30 s, 60° C. for 1 min, and 72° C. for 1 min with a final extension at 72° C. for 10 min. PCR products were separated using 1.5% agarose gel in the presence of 0.5 μg/ml ethidium bromide and imaged using the FluorChem® HD2 Imaging System (Alpha Innotech Corporation, San Leandro, Calif.). Densitometry analysis was performed using AlphaEase FC software (Alpha Innotech Corporation). Relative expression levels were calculated from the ratio of integrated density values of HLA-G to that of β-actin.
as §3, §4

Assay [5] deals with HLA-G1. Put plainly: HLA-G1 transcript expression in BMSCs by semi-quantitative RT-PCR. As to conditions: mean±SEM. The method, then: as §1, §5
After 72 h treatment, cells were trypsinized and total RNA extracted using RNeasy kit (Qiagen, Valencia, Calif.) according to the manufacturer's protocol. Semi-quantitative RT-PCR reactions were performed on a DNA Engine Peltier Thermal Cycler (Bio-Rad, Hercules, Calif.) as previously described. M. D. Nicola, et al., Human bone marrow stromal cells suppress T-lymphocyte proliferation induced by cellular or non-specific mitogenic stimuli, Blood 99: 3838-3843 (2002). Briefly, first strand cDNA was synthesized in 50 μl reactions from 2 μg total RNA using oligo dT primers and TaqMan reverse transcription reagents (Applied Biosystems, Foster City, Calif.). Reverse transcription (RT) reactions were carried out at 24° C. for 10 min, 48° C. for 1 h, and heat inactivation at 95° C. for 5 min. […] PCR program consisted of 94° C. for 4 min, followed by 30 cycles at 94° C. for 30 s, 60° C. for 1 min, and 72° C. for 1 min with a final extension at 72° C. for 10 min. PCR products were separated using 1.5% agarose gel in the presence of 0.5 μg/ml ethidium bromide and imaged using the FluorChem® HD2 Imaging System (Alpha Innotech Corporation, San Leandro, Calif.). Densitometry analysis was performed using AlphaEase FC software (Alpha Innotech Corporation). […]
as §3, §4

Assay [6] has as its system HLA-G3. Put plainly: HLA-G3 transcript expression in AMSCs by semi-quantitative RT-PCR. As to conditions: for Relative HLA-G3 expression: ratio HLA-G to β-actin, mean±SEM, 3 experiments. The method, then:
as §2, §5
After 72 h treatment, cells were trypsinized and total RNA extracted using RNeasy kit (Qiagen, Valencia, Calif.) according to the manufacturer's protocol. Semi-quantitative RT-PCR reactions were performed on a DNA Engine Peltier Thermal Cycler (Bio-Rad, Hercules, Calif.) as previously described. M. D. Nicola, et al., Human bone marrow stromal cells suppress T-lymphocyte proliferation induced by cellular or non-specific mitogenic stimuli, Blood 99: 3838-3843 (2002). Briefly, first strand cDNA was synthesized in 50 μl reactions from 2 μg total RNA using oligo dT primers and TaqMan reverse transcription reagents (Applied Biosystems, Foster City, Calif.). Reverse transcription (RT) reactions were carried out at 24° C. for 10 min, 48° C. for 1 h, and heat inactivation at 95° C. for 5 min. […] Relative expression levels were calculated from the ratio of integrated density values of HLA-G to that of β-actin.
as §3, §4

[7] abbreviates: BMSCs passage 5 (P5), 10 μM for 72 h, ratio HLA-G to β-actin, 3 experiments.
The mark [8] stands for this setting: BMSCs passage 10 (P10), 10 μM for 72 h, ratio HLA-G to β-actin, 3 experiments.

2 compounds from patent US10576105B2, “Mesenchymal stem cells with enhanced immunosuppressive capability” (Escape Therapeutics, Inc., priority 2015, dated 2020) can be followed below.

As for `Nc1ncn([C@H]2C[C@H](O)[C@@H](CO)O2)c(=O)n1` [5-aza-dC, 4-amino-1-(2-deoxy-b-D-erythro-pentofuranosyl)-1,3,5-triazin-2(1H)-one], the “Relative expression of HLA-G5” value in the assay on HLA-G5 [1] is 0.009 ± 0.00; in the assay on HLA-G5 [2] it was 0.009 ± 0.001. Moreover, the “Relative HLA-G1 expression” value in the assay on HLA-G1 [3] (AMSCs passage 5 (P5)) is 0.15±0.02; in the assay with HLA-G1 [3] (AMSCs passage 10 (P10)) it was 0.23±0.19; with HLA-G1 [5] (setting [7]) it was 0.16±0.01; in the assay with HLA-G1 [5] (setting [8]), 0.24±0.01. In addition, the “Relative HLA-G3 expression” value in the assay with HLA-G3 [4] (setting [7]) was found to be 0.33±0.08; in the assay with HLA-G3 [4] (setting [8]), 0.38±0.07; in the assay on HLA-G3 [6] (AMSCs passage 5 (P5), 10 μM for 72 h) it was 0.31±0.05; with HLA-G3 [6] (AMSCs passage 10 (P10), 10 μM for 72 h), 0.27±0.06. In addition, the “Relative HLA-G3 expression, fold higher than untreated” value with HLA-G3 [6] (AMSCs P5 and P10, 10 μM for 72 h, treated versus untreated) is ~2 fold.

`CCCC(CCC)C(=O)O` [VPA, Valproic acid]: the “Relative expression of HLA-G5” value was found to be 0.006 ± 0.004 in the assay with HLA-G5 [1] and 0.006 ± 0.00 in the assay on HLA-G5 [2]. Besides, the “Upregulation of HLA-G5 mRNA” value in the assay on HLA-G5 [2] (AMSCs treated with VPA (Table 2)) is given as “no upregulation”. Besides, the “Upregulation of HLA-G1 mRNA” value with HLA-G1 [3] (AMSCs treated with VPA, P5 and P10 (FIG. 5C)) was “no upregulation”. Besides, the “Relative HLA-G3 expression” value is 0.04±0.01 in the assay on HLA-G3 [4] (VPA-treated BMSCs passage 5 (P5), FIG. 5B) and 0.01±0.001 in the assay with HLA-G3 [4] (VPA-treated BMSCs passage 10 (P10), FIG. 5B). Besides, the “Relative HLA-G1 expression” value in the assay on HLA-G1 [5] (VPA-treated BMSCs passage 5 (P5), relative to β2M (FIG. 5A)) was determined as 0.08±0.02; with HLA-G1 [5] (VPA-treated BMSCs passage 10 (P10), relative to β2M (FIG. 5A)), 0.05±0.002. The “Upregulation of HLA-G3 mRNA” value in the assay with HLA-G3 [6] (AMSCs treated with VPA, P5 and P10 (FIG. 5D)) is “no upregulation”.
